Results published in patent US12338220B2, “Antiviral pyrazolopiridinone compounds” (Novartis AG, priority 2019, dated 2025).
Read-outs that look alike come from different tables or passages of the source.

What was measured:
CMV-polymerase = CMV-polymerase (Human cytomegalovirus (strain AD169) (HHV-5) (Human herpesvirus 5), UniProt P08546); test: biochemical
CMV = test: microbe, parasite or virus in culture; format: cell-based; details: Human betaherpesvirus 5, 72 h, read-out: CMV-Luc Cellular EC50, NN-NHDF cells, MOI 1, 72 hrs
[1] = read-out: CMV-polymerase Biochemical IC50

Row | Structure (SMILES) | IC50 (CMV-polymerase; [1]) [nM] | EC50 (CMV) [nM] | IC50 (CMV-polymerase; CMV-polymerase Biochemical IC50) [nM]
1 | Cn1nc(C(=O)NCc2ccc(C#N)cc2)c2c1C(=O)N(CC1(S(=O)(=O)N3CCC(N)CC3)CC1)CC2 [Example 138, 6-((1-((4-Aminopiperidin-1-yl)sulfonyl)cyclopropyl)methyl)-N-(4-cyanobenzyl)-1-methyl-7-oxo-4,5,6,7-tetrahydro-1H-pyrazolo[3,4-c]pyridine-3-carboxamide] | 21 | 127 | 
2 | Cn1nc(C(=O)NCc2ccc(C#N)cc2)c2c1C(=O)N(CC1(S(=O)(=O)N3C[C@@H](N)[C@H](O)C3)CC1)CC2 [Example 139, 6-((1-(((3R,4R)-3-Amino-4-hydroxypyrrolidin-1-yl)sulfonyl)cyclopropyl)methyl)-N-(4-cyanobenzyl)-1-methyl-7-oxo-4,5,6,7-tetrahydro-1H-pyrazolo[3,4-c]pyridine-3-carboxamide] | 8 | 533 | 
3 | Cn1nc(C(=O)NCc2ccc(C#N)cc2)c2c1C(=O)N(CC1(S(=O)(=O)N3C[C@H](N)[C@@H](O)C3)CC1)CC2 [Example 140, 6-((1-(((3S,4S)-3-Amino-4-hydroxypyrrolidin-1-yl)sulfonyl)cyclopropyl)methyl)-N-(4-cyanobenzyl)-1-methyl-7-oxo-4,5,6,7-tetrahydro-1H-pyrazolo[3,4-c]pyridine-3-carboxamide] | 11 | 418 | 
4 | Cn1nc(C(=O)NCc2ccc(C#N)cc2)c2c1C(=O)N(CC1(S(=O)(=O)N3CC[C@@H](N)C3)CC1)CC2 [Example 141, (R)-6-((1-((3-Aminopyrrolidin-1-yl)sulfonyl)cyclopropyl)methyl)-N-(4-cyanobenzyl)-1-methyl-7-oxo-4,5,6,7-tetrahydro-1H-pyrazolo[3,4-c]pyridine-3-carboxamide] | 13 | 51 | 
5 | Cn1nc(C(=O)NCc2ccc(C#N)cc2)c2c1C(=O)N(CC1(S(=O)(=O)N3CC[C@H](N)C3)CC1)CC2 [Example 142, (S)-6-((1-((3-Aminopyrrolidin-1-yl)sulfonyl)cyclopropyl)methyl)-N-(4-cyanobenzyl)-1-methyl-7-oxo-4,5,6,7-tetrahydro-1H-pyrazolo[3,4-c]pyridine-3-carboxamide] | 18 | 66 | 
6 | Cn1nc(C(=O)NCc2ccc(Cl)cc2)c2c1C(=O)N(CC1(S(=O)(=O)NCCO)CC1)CC2 [Example 143, N-(4-Chlorobenzyl)-6-((1-(N-(2-hydroxyethyl)sulfamoyl)cyclopropyl)methyl)-1-methyl-7-oxo-4,5,6,7-tetrahydro-1H-pyrazolo[3,4-c]pyridine-3-carboxamide] | 19 | 138 | 
7 | CN(CCO)S(=O)(=O)C1(CN2CCc3c(C(=O)NCc4ccc(Cl)cc4)nn(C)c3C2=O)CC1 [Example 144, N-(4-Chlorobenzyl)-6-((1-(N-(2-hydroxyethyl)-N-methylsulfamoyl)cyclopropyl)methyl)-1-methyl-7-oxo-4,5,6,7-tetrahydro-1H-pyrazolo[3,4-c]pyridine-3-carboxamide] | 4 | 44 | 
8 | Cn1nc(C(=O)NCc2ccc(C#N)cc2)c2c1C(=O)N(CC1(S(=O)(=O)NCCO)CC1)CC2 [Example 145, N-(4-Cyanobenzyl)-6-((1-(N-(2-hydroxyethyl)sulfamoyl)cyclopropyl)methyl)-1-methyl-7-oxo-4,5,6,7-tetrahydro-1H-pyrazolo[3,4-c]pyridine-3-carboxamide] | 14 | 303 | 
9 | CN(CCO)S(=O)(=O)C1(CN2CCc3c(C(=O)NCc4ccc(C#N)cc4)nn(C)c3C2=O)CC1 [Example 146, N-(4-Cyanobenzyl)-6-((1-(N-(2-hydroxyethyl)-N-methylsulfamoyl)cyclopropyl)methyl)-1-methyl-7-oxo-4,5,6,7-tetrahydro-1H-pyrazolo[3,4-c]pyridine-3-carboxamide] | 3 | 61 | 
10 | CN(C(CO)CO)S(=O)(=O)C1(CN2CCc3c(C(=O)NCc4ccc(C#N)cc4)nn(C)c3C2=O)CC1 [Example 147, N-(4-Cyanobenzyl)-6-((1-(N-(1,3-dihydroxypropan-2-yl)-N-methylsulfamoyl)cyclopropyl)methyl)-1-methyl-7-oxo-4,5,6,7-tetrahydro-1H-pyrazolo[3,4-c]pyridine-3-carboxamide] | 30 | 604 | 
11 | Cn1nc(C(=O)NCc2ccc(Cl)cc2)c2c1C(=O)N(CC1(S(=O)(=O)NC(C)(C)CO)CC1)CC2 [Example 148, N-(4-Chlorobenzyl)-6-((1-(N-(1-hydroxy-2-methylpropan-2-yl)sulfamoyl)cyclopropyl)methyl)-1-methyl-7-oxo-4,5,6,7-tetrahydro-1H-pyrazolo[3,4-c]pyridine-3-carboxamide] | 15 | 139 | 
12 | Cn1nc(C(=O)NCc2ccc(C#N)cc2)c2c1C(=O)N(CC1(S(=O)(=O)NC(C)(C)CO)CC1)CC2 [Example 149, N-(4-Cyanobenzyl)-6-((1-(N-(1-hydroxy-2-methylpropan-2-yl)sulfamoyl)cyclopropyl)methyl)-1-methyl-7-oxo-4,5,6,7-tetrahydro-1H-pyrazolo[3,4-c]pyridine-3-carboxamide] | 12 | 166 | 
13 | Cn1nc(C(=O)NCc2ccc(Cl)cc2)c2c1C(=O)N(CC1(S(=O)(=O)N3CC(O)C3)CC1)CC2 [Example 150, N-(4-Chlorobenzyl)-6-((1-((3-hydroxyazetidin-1-yl)sulfonyl)cyclopropyl)methyl)-1-methyl-7-oxo-4,5,6,7-tetrahydro-1H-pyrazolo[3,4-c]pyridine-3-carboxamide] | 6 | 67 | 
14 | CNS(=O)(=O)C1(CN2CCc3c(C(=O)NCc4ccc(Cl)cc4)nn(C)c3C2=O)CC1 [Example 151, N-(4-Chlorobenzyl)-1-methyl-6-((1-(N-methylsulfamoyl)cyclopropyl)methyl)-7-oxo-4,5,6,7-tetrahydro-1H-pyrazolo[3,4-c]pyridine-3-carboxamide] | 8 | 64 | 
15 | Cn1nc(C(=O)NCc2ccc(Cl)cc2)c2c1C(=O)N(CC1(S(=O)(=O)NCC(C)(C)O)CC1)CC2 [Example 152, N-(4-Chlorobenzyl)-6-((1-(N-(2-hydroxy-2-methylpropyl)sulfamoyl)cyclopropyl)methyl)-1-methyl-7-oxo-4,5,6,7-tetrahydro-1H-pyrazolo[3,4-c]pyridine-3-carboxamide] | 30 | 834 | 
16 | Cn1nc(C(=O)NCc2ccc(Cl)cc2)c2c1C(=O)N(CC1(S(=O)(=O)NC(C)(CO)CO)CC1)CC2 [Example 153, N-(4-Chlorobenzyl)-6-((1-(N-(1,3-dihydroxy-2-methylpropan-2-yl)sulfamoyl)cyclopropyl)methyl)-1-methyl-7-oxo-4,5,6,7-tetrahydro-1H-pyrazolo[3,4-c]pyridine-3-carboxamide] | 20 | 305 | 
17 | Cn1nc(C(=O)NCc2ccc(C#N)cc2)c2c1C(=O)N(CC1(S(=O)(=O)Nc3ccccn3)CC1)CC2 [Example 155, N-(4-cyanobenzyl)-1-methyl-7-oxo-6-((1-(N-(pyridin-2-yl)sulfamoyl)cyclopropyl)methyl)-4,5,6,7-tetrahydro-1H-pyrazolo[3,4-c]pyridine-3-carboxamide] |  | 57 | 2
18 | Cn1ccc(NS(=O)(=O)C2(CN3CCc4c(C(=O)NCc5ccc(C#N)cc5)nn(C)c4C3=O)CC2)n1 [Example 156, N-(4-Cyanobenzyl)-1-methyl-6-((1-(N-(1-methyl-1H-pyrazol-3-yl)sulfamoyl)cyclopropyl)methyl)-7-oxo-4,5,6,7-tetrahydro-1H-pyrazolo[3,4-c]pyridine-3-carboxamide] | 3 | 100 | 
